Tests used:
ALOMY = assay: Pre-emergence action at 320 g/ha against ALOMY; assay type: in vivo, Alopecurus myosuroides; details: scored visually after about 3 weeks vs untreated controls (100% = plants have died)
Source text: (§1) b) Seeds of monocotyledonous and dicotyledonous weed plants and crop plants are placed in plastic or organic planting pots and covered with soil. The compounds of the invention, formulated in the form of wettable powders (WP) or as emulsion concentrates (EC), are then applied onto the surface of the covering soil as aqueous suspension or emulsion with addition of 0.5% additive at a water application rate of 600 l/ha (converted). After the treatment, the pots are placed in a greenhouse and kept under good growth conditions for the trial plants. After about 3 weeks, the effect of the preparations is scored visually in comparison with untreated controls as percentages. For example, 100% activity=the plants have died, 0% activity=like control plants. Tables 13 to 26 below show the effects of selected compounds of the general formula (I) on various harmful plants and at an application rate corresponding to 320 g/ha, which were obtained by the experimental procedure mentioned above.

VIOTR = assay: Pre-emergence action at 320 g/ha against VIOTR; assay type: in vivo, Viola tricolor; details: dosage 320 g/ha
Source text: as §1

SETVI = assay: Pre-emergence action at 320 g/ha against SETVI; assay type: in vivo, Setaria viridis; details: visual scoring after about 3 weeks vs untreated controls
Source text: as §1

MATIN = assay: Pre-emergence action at 320 g/ha against MATIN; assay type: in vivo, Tripleurospermum inodorum (Matricaria inodora); details: visual scoring after about 3 weeks vs untreated controls
Source text: as §1

AMARE = assay: Pre-emergence action at 320 g/ha against AMARE; assay type: in vivo, Amaranthus retroflexus; details: visual scoring after about 3 weeks vs untreated controls
Source text: as §1

POLCO = assay: Pre-emergence action at 320 g/ha against POLCO; assay type: in vivo, Fallopia convolvulus (Polygonum convolvulus); details: visual scoring after about 3 weeks vs untreated controls
Source text: as §1

VERPE = assay: Pre-emergence action at 320 g/ha against VERPE; assay type: in vivo, Veronica persica; details: visual scoring after about 3 weeks vs untreated controls
Source text: as §1

Row | SMILES | Pre-emergence action at 320 g/ha against ALOMY in % (ALOMY) [%] | Pre-emergence action against VIOTR in % (VIOTR) [%] | Pre-emergence action against SETVI in % (SETVI) [%] | Pre-emergence action against MATIN in % (MATIN) [%] | Pre-emergence action against AMARE in % (AMARE) [%] | Pre-emergence action against POLCO in % (POLCO) [%] | Pre-emergence action against VERPE in % (VERPE) [%]
1 | O=C(O)CNC(=O)C(F)Oc1nn(-c2ccccc2F)c(-c2ccc(F)nc2)c1Br (stereo not drawn) [Example X-012] | 90 | 100 | 90 | 90 | 100 | 90 | 
2 | COC(=O)C1CCCN(C(=O)COc2nn(-c3ccccc3F)c(-c3cncc(F)c3)c2Br)C1 (stereo not drawn) [Example X-034] |  | 90 |  |  |  |  | 90
3 | COC(=O)C1CCN(C(=O)COc2nn(-c3ccccc3F)c(-c3cncc(F)c3)c2Br)C1 (stereo not drawn) [Example X-037] |  |  |  |  | 100 | 90 | 100
4 | CCOC(=O)COc1nn(-c2ccccc2F)c(-c2ccc(F)nc2)c1C(F)F [VII-078] | 80 | 90 |  |  | 100 |  | 80

From US12180187B2, “1-phenyl-5-azinylpyrazolyl-3-oxyalkyl acids and their use for controlling unwanted plant growth” (BAYER AKTIENGESELLSCHAFT, priority 2019, dated 2024)
